Assay results taken from patent US9517237B2, “Compounds and methods for treating multiple sclerosis” (NEURO VIGOR, LLC, priority 2010, dated 2016).

Experiments:
EAE mice = test system: EAE mice
Description: Animals. C57BL/6 female mice (8 weeks old) were purchased from Harlan Laboratories and were maintained in the lab animal housing facilities. These studies were performed in compliance with the Purdue Animal Care and Use Committee protocol guidelines at Purdue University, West Lafayette, Ind.
Induction of EAE. Nine-twelve week old mice were subcutaneously injected with 0.1 mL MOG35-55/CFA emulsion (EK-0115, Hooke Laboratories) in the neck and lower back (total of 0.2 mL). Within two hours of the injection, 0.1 mL pertussis toxin (EK-0115, Hooke Laboratories) was administered intraperitoneally. A second dose of pertussis toxin of the same volume was given 22-26 hours later. The behavioral performance was assessed using a well established 5-point behavioral scoring system (Kalyvas and David, 2004). The animals were placed on a metal grate and their walking ability was recorded. The scoring system is as follows: 0—no deficit; 1—limp tail only; 2—hind limb paresis but without leg dragging; 3—partial hind limb weakness with one or both legs dragging; 4—complete hind limb paralysis; 5—moribund, paralysis in hind limbs and possibly in one forelimb. The animals were monitored and assessed three times during the first week and then assessed daily for the remainder of the study.
(§1) Hydralazine Treatment. A solution of hydralazine hydrochloride (Sigma) was prepared with phosphate buffered saline. The solution was then sterilized through a filter and stored at 4° C. Hydralazine (1 mg/kg) was administered through daily with intraperitoneal injections from the day the MOG/CFA emulsion was administered until the end of the 30 day study period. For sham treatments, mice were administered saline intraperitoneally rather than the hydralazine solution. Blood pressures were monitored using a CODA 2 system (Kent Scientific Corp.).
(§2) One group of EAE mice are injected with hydralazine (EAE+HZ) at the dose of 1 mg/kg daily starting from the day of induction (n=11). In the sham-treated group (EAE), an equal amount of saline is injected daily (n=12). Both hydralazine and saline (sham) treatments are carried out for 30 days post induction. The behavioral scores of the two groups of mice are recorded daily (FIG. 2 panel A).
Phenelzine is administered via intraperitoneal (IP) injections at 15 mg/kg for 30 days. […] The highest score for each mouse was taken and averaged within each group. All data are expressed as mean±SEM.

[1] = mouse, in vivo
Description: as §1, §2

acrolein-lysine adducts = details: EAE mice treated with hydralazine, n=3, mean±SEM; EAE 20.27±3.0, control 12.30±1.3
Description: Acrolein-lysine adducts in the tissue homogenate was measured using a Bio-Dot SF Microfiltration Apparatus (Bio-Rad, Hercules, Calif., USA), as previously described (Luo et al., 2005a; Shao et al., 2006; Hamann et al., 2008a). Briefly, the tissue was homogenized with TritonX-100 (3%), and the following anti-proteases were added: 2 mmol/L pefabloc, 15 lmol/L pepstatin A, 20 µg/mL aprotinin, and 25 µg/mL leupeptin. The solution was centrifuged to pellet large pieces of tissue and the supernatant was stored at −80° C. until transferred to a nitrocellulose membrane. The membrane was blocked for 1 h in blocking buffer (0.2% casein and 0.1% Tween 20 in PBS) and transferred to 1:1000 polyclonal rabbit anti-acrolein (in blocking buffer with 2% goat serum and 0.025% sodium azide) (Novus Biologicals) for 18 h at 4° C. Next, the membrane was washed in blocking buffer and then transferred to 1:10000 alkaline phosphatase conjugated goat anti-rabbit IgG. […]
The optical density of bands was evaluated using Image J (NIH) and statistical comparison was performed with SAS 9.2 (SAS institute). […]
The acrolein-lysine adducts in control (n=3), EAE mice (n=3) and EAE+HZ mice (n=3) spinal cord are detected using Bio-Dot SF Microfiltration Apparatus. […] Band intensities are analyzed using ImageJ (NIH) and are expressed in arbitrary units. […] All data are expressed as mean±SEM.

EAE mice spinal cord = details: thoracic spinal cord cross section, n=3, sham treated 25.58±3.8%
Description: Mice were perfusion fixed with 4% paraformaldehyde and the vertebral columns were removed and fixed in 4% paraformaldehyde overnight. Spinal cord tissues were extracted out of the vertebral column, cut into 1 cm pieces, and further fixed in 4% paraformaldhyde for 24-48 hours. The samples were cryoprotected by incubating for 24 h in a 10% sucrose solution, followed by 24 hours in a 20% sucrose solution. The samples were then imbedded in Tissue-Tek OCT compound (VWR, Batavia, Ill.) and frozen in liquid nitrogen. 15 μm sections were cut using a cryostat and mounted on gelatin coated slides. Sections were incubated with 5% goat serum and 0.5% Triton-X100 in phosphate buffered saline (PBS) for 30 minutes as blocking agents. […] All sections were observed by fluorescence microscopy.
For quantification, the thoracic sections were imaged, and Adobe Photoshop was used to outline the demyelination area and total white matter area. Pixel area for each sample was calculated and the percentage of demyelination was obtained by dividing the total demyelinated area by total white matter area. […] For each of the 3 groups, (control, EAE, EAE+HZ), 3 animals were used for immunofluorescence quantification.
Total white matter area and lesion areas are manually outlined and the pixel area is calculated. Percent demyelination is calculated by dividing total demyelinated area by total white matter area.

SMILES	average onset of symptoms (EAE mice; 1 mg/kg daily i.p. from day of induction, n=11, mean±SEM, sham 15.42±0.4) [days post induction]	average behavioral score (highest score for each mouse averaged within group) (EAE mice; 5-point scale, 1 mg/kg daily i.p. from day of induction, mean±SEM, EAE group 3.33±0.3)	average systolic pressure of EAE mice [1] [mmHg]	average systolic pressure of normal mice [1] [mmHg]	acrolein-lysine adduct level in EAE mice spinal cord (acrolein-lysine adducts) [a.u.]	percent demyelination in white matter (EAE mice spinal cord) [%]	behavioral scores evaluated daily (EAE mice; 5-point scale, phenelzine IP 15 mg/kg for 30 days, vs sham)	mean behavioral scores (highest score for each mouse averaged) (EAE mice; phenelzine IP 15 mg/kg for 30 days, vs EAE, p<0.005)	time to EAE symptom onset (EAE mice; phenelzine IP 15 mg/kg for 30 days, vs sham, p<0.005)
NNc1nncc2ccccc12 [hydralazine]	21.73±2.1	1.72±0.4	134.8±4.5	118.5±6.4	15.14±1.6	5.10±4.2			
NNCCc1ccccc1 [phenelzine]							significant differences for all comparisons following day 14	mean behavioral scores are significantly increased in EAE mice compared to the phenelzine treated (EAE+PLZ) group	significant delay in disease progression
